Among the data in patent publication US9656971B2, “COMT inhibitors” (Hoffmann-La Roche Inc., priority 2012, dated 2017) are anti-depressant activity, brain/plasma ratio and IC50 values, retold here.

Data set [1] concerns patients with major depressive disorder (MDD). As to conditions: open clinical trial, 21 patients with MDD, 8 weeks, 400 mg b.i.d.; cited from earlier work.
For data set [2] the following is noted: in vivo; cited from earlier work.
The next data set deals with rat anhedonia model. As to conditions: cited from earlier work.
The next data set addresses T1, Rec. human COMT (Homo sapiens, UniProt P21964).
T1 sequence (P21964 1-271): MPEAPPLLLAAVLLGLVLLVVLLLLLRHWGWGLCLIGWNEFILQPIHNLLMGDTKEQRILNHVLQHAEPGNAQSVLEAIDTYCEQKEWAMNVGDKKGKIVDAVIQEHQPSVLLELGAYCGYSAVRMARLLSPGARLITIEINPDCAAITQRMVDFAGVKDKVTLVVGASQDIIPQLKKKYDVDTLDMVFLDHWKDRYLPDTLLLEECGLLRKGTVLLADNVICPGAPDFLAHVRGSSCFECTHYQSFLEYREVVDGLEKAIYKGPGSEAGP
Kind of data set: COMT-Fluorescence Assay. The class given is biochemical. As to conditions: rec. human COMT 25 nM, 4-Nitrocatechol-Alexa488 200 nM, SAM 500 nM. Here is the method:
This intramolecular interaction is disturbed if the 4-Nitrocatechol is methylated. […] This increase of fluorescence intensity can be followed in a kinetic measurement. The slope in the linear range of the kinetic is calculated. An inhibitor compound decreases the slope.
Signal [rfu/min]=(rfu(end-point)−rfu(startpoint))/incubation_time_#2

The mark [3] stands for this setting: COMT-fluorescence assay, read-out: IC50.

One may read the IC50 as the concentration that inhibits the measured activity by half.

Counter-ions that a name gives are not always drawn. Like-named read-outs stand apart in the source and are kept apart here.

For the compound `Cc1ccc(C(=O)c2cc(O)c(O)c([N+](=O)[O-])c2)cc1` [Tolcapone, tolcapone], the anti-depressant activity entry (in data set [1]; with rat anhedonia model) was “anti-depressant activity” throughout. Also, in data set [2], the brain/plasma ratio is on record as ~0.01. Consider `CSCc1ccccc1-c1cc(O)c2nc[nH]c(=O)c2c1` [Example 114], for which the half-inhibitory concentration (IC50) at Rec. human COMT (setting [3]) amounted to 0.04 µM. On to `CC(=O)c1ccccc1-c1cc(O)c2nc[nH]c(=O)c2c1` [Example 112, 6-(2-Acetylphenyl)-8-hydroxyquinazolin-4(3H)-one], for which the midpoint of inhibition against Rec. human COMT (IC50, COMT-fluorescence assay), the IC50, lay at 0.17 µM. Turning to `CN(C)S(=O)(=O)n1cnc(-c2cc(O)c3nc[nH]c(=O)c3c2)c1` [Example 77, 4-(8-Hydroxy-4-oxo-3,4-dihydroquinazolin-6-yl)-N,N-dimethyl-1H-imidazole-1-sulfonamide], the half-inhibitory concentration (IC50) at Rec. human COMT (setting [3]) was found to be 0.05 µM. Still for that read-out and setting: the result for `O=c1[nH]cnc2c(O)cc(-c3ccc4c(c3)OCO4)cc12` [Example 177, 6-(Benzo[d][1,3]dioxol-5-yl)-8-hydroxyquinazolin-4(3H)-one] reads 0.04 µM. On to `CN(C)CCc1ccccc1-c1cc(O)c2nc[nH]c(=O)c2c1` [Example 234, 6-(2-(2-(Dimethylamino)ethyl)phenyl)-8-hydroxyquinazolin-4(3H)-one], for which the 50% inhibitory concentration (IC50) on Rec. human COMT (setting [3]) amounted to 0.98 µM. Consider `Cc1nc(-c2ccccc2)sc1-c1cc(O)c2nc[nH]c(=O)c2c1` [Example 203, 8-Hydroxy-6-(4-methyl-2-phenylthiazol-5-yl)quinazolin-4(3H)-one], for which the IC50 at Rec. human COMT (setting [3]) came out at 0.01 µM. As to `Cc1ccc(F)cc1-c1cc(O)c2nc[nH]c(=O)c2c1` [Example 213, 6-(5-Fluoro-2-methylphenyl)-8-hydroxyquinazolin-4(3H)-one], the IC50 against Rec. human COMT (IC50, COMT-fluorescence assay) was 0.03 µM. For the compound `Cc1cc(-c2c(Br)cc(O)c3nc[nH]c(=O)c23)ccn1` [Example 105, 6-Bromo-8-hydroxy-5-(2-methylpyridin-4-yl)quinazolin-4(3H)-one], the IC50 at Rec. human COMT (setting [3]) turned out to be 0.07 µM. Still for that read-out and setting: the result for `CCCCOc1ccccc1-c1cc(O)c2nc[nH]c(=O)c2c1` [Example 228, 6-(2-Butoxyphenyl)-8-hydroxyquinazolin-4(3H)-one] reads 0.05 µM; that for `Cn1cc(-c2cc(O)c3nc[nH]c(=O)c3c2)cn1` [Example 179, 8-Hydroxy-6-(1-methyl-1H-pyrazol-4-yl)quinazolin-4(3H)-one], 0.09 µM; that for `Cc1cn(C)c(-c2cc(O)c3nc[nH]c(=O)c3c2)n1` [Example 188, 6-(1,4-Dimethyl-1H-imidazol-2-yl)-8-hydroxyquinazolin-4(3H)-one], 1.27 µM. Same read-out and setting: the result for `O=c1[nH]cnc2c(O)cc(-c3ccc(S(F)(F)(F)(F)F)cc3)cc12` [Example 100, 6-(4-Pentafluorosulfanylphenyl)-8-hydroxyquinazolin-4(3H)-one] reads 0.05 µM. The same measure, in the same setting: the same measure for `O=c1[nH]cnc2c(O)cc(-c3ccc(-c4ccccn4)s3)cc12` [Example 89, 8-Hydroxy-6-(5-(pyridin-2-yl)thiophen-2-yl)quinazolin-4(3H)-one]: 0.02 µM. Regarding `O=c1[nH]cnc2c(O)cc(-c3ccc(F)cc3F)cc12` [Example 133, 6-(2,4-Difluorophenyl)-8-hydroxyquinazolin-4(3H)-one], the IC50 on Rec. human COMT (IC50, COMT-fluorescence assay) was 0.02 µM. `O=c1[nH]cnc2c(O)cc(-c3ccc(F)cc3)c(C(F)(F)F)c12` [Example 43, 6-(4-Fluorophenyl)-8-hydroxy-5-(trifluoromethyl)quinazolin-4(3H)-one]: the IC50 on Rec. human COMT (setting [3]) worked out at 0.04 µM. Take `Cc1cc(C(=O)N2CCCCC2)sc1-c1cc(O)c2nc[nH]c(=O)c2c1` [Example 97, 8-Hydroxy-6-(3-methyl-5-(piperidine-1-carbonyl)thiophen-2-yl)quinazolin-4(3H)-one]: the IC50 at Rec. human COMT (setting [3]) amounted to 0.01 µM. Take `CCOc1ccccc1-c1cc(O)c2nc[nH]c(=O)c2c1` [Example 225, 6-(2-Ethoxyphenyl)-8-hydroxyquinazolin-4(3H)-one]: the IC50 on Rec. human COMT (setting [3]) is 0.06 µM.

Take `Cc1cc(C(=O)N2CCN(C)CC2)sc1-c1cc(O)c2nc[nH]c(=O)c2c1` [Example 103, 8-Hydroxy-6-[3-methyl-5-(4-methyl-piperazine-1-carbonyl)-thiophen-2-yl]-3H-quinazolin-4-one]: on Rec. human COMT (setting [3]), the IC50 was determined as 0.01 µM. In the case of `O=c1[nH]cnc2c(O)cc(-c3cnsc3)cc12` [Example 92, 8-Hydroxy-6-(isothiazol-4-yl)quinazolin-4(3H)-one], at Rec. human COMT (setting [3]), the IC50 was found to be 0.06 µM. As to `O=c1[nH]cnc2c(O)cc(Br)c(C(F)(F)F)c12` [Example 41, 6-Bromo-8-hydroxy-5-(trifluoromethyl)quinazolin-4(3H)-one], the IC50 at Rec. human COMT (setting [3]) was determined as 0.16 µM. As for `COc1ccc(C(F)(F)F)cc1-c1cc(O)c2nc[nH]c(=O)c2c1` [Example 26, 8-Hydroxy-6-(2-methoxy-5-(trifluoromethyl)phenyl)quinazolin-4(3H)-one], the half-maximal inhibitory concentration (IC50) at Rec. human COMT (setting [3]) is 0.19 µM. Regarding `O=c1[nH]cnc2c(O)cc(-c3cncc4ccccc34)cc12` [Example 168, 8-Hydroxy-6-(isoquinolin-4-yl)quinazolin-4(3H)-one], on Rec. human COMT (setting [3]), the IC50 came to 0.03 µM. As for `COC(=O)c1nn(C)cc1-c1cc(O)c2nc[nH]c(=O)c2c1` [Example 88, Methyl 4-(8-hydroxy-4-oxo-3,4-dihydroquinazolin-6-yl)-1-methyl-1H-pyrazole-3-carboxylate], the half-maximal inhibitory concentration (IC50) on Rec. human COMT (setting [3]) was 0.12 µM. Same read-out and setting: the result for `Nc1c(-c2ccc(F)cc2)cc(O)c2nc[nH]c(=O)c12` [Example 253, 5-Amino-6-(4-fluorophenyl)-8-hydroxyquinazolin-4(3H)-one hydrobromide] reads 0.1 µM.

In the case of `O=c1[nH]cnc2c(O)cc(C3=CCOCC3)cc12` [Example 70, 6-(3,6-Dihydro-2H-pyran-4-yl)-8-hydroxyquinazolin-4(3H)-one], the IC50 at Rec. human COMT (setting [3]) stood at 0.02 µM. As for `O=c1[nH]cnc2c(O)cc(I)cc12` [Example 137, 8-Hydroxy-6-iodo-3H-quinazolin-4-one], the IC50 on Rec. human COMT (setting [3]) was found to be 0.06 µM. On the same count and under the same terms, the same measure for `O=c1[nH]cnc2c(O)cc(C3CCc4ccccc4C3)cc12` (racemic) [Example 8, (rac.) 8-Hydroxy-6-(1,2,3,4-tetrahydronaphthalen-2-yl)quinazolin-4(3H)-one]: 0.1 µM. Same read-out and setting: the result for `O=c1[nH]cnc2c(O)cc(-c3ccc4c(c3)OCCO4)cc12` [Example 176, 6-(2,3-Dihydrobenzo[b][1,4]dioxin-6-yl)-8-hydroxyquinazolin-4(3H)-one] reads 0.02 µM; that for `O=c1[nH]cnc2c(O)cc(-c3cccc(CN4CCOCC4)c3)cc12` [Example 39, 8-Hydroxy-6-(3-(morpholinomethyl)phenyl)quinazolin-4(3H)-one 1:1 salt with trifluoroacetate], 0.02 µM. As for `Cc1ccc(-c2cc(O)c3nc[nH]c(=O)c3c2)cc1` [Example 130, 8-Hydroxy-6-p-tolylquinazolin-4(3H)-one], at Rec. human COMT (IC50, COMT-fluorescence assay), 0.03 µM corresponded to half-maximal inhibition (IC50).

`CCOc1cc(F)ccc1-c1cc(O)c2nc[nH]c(=O)c2c1` [Example 211, 6-(2-Ethoxy-4-fluorophenyl)-8-hydroxyquinazolin-4(3H)-one]: the concentration for half-maximal inhibition (IC50) at Rec. human COMT (setting [3]) was 0.07 µM. Consider `O=c1[nH]cnc2c(O)cc(C3CCCC3)cc12` [Example 18, 6-Cyclopentyl-8-hydroxyquinazolin-4(3H)-one], for which, on Rec. human COMT (setting [3]), the IC50 worked out at 0.9 µM.

With `Cc1ccc(-c2cc(O)c3nc[nH]c(=O)c3c2)c(C)n1` [Example 202, 6-(2,6-Dimethyl-pyridin-3-yl)-8-hydroxy-3H-quinazolin-4-one], the IC50 on Rec. human COMT (setting [3]) amounted to 0.02 µM. Take `CN(C)CCCc1ccccc1-c1cc(O)c2nc[nH]c(=O)c2c1` [Example 243, 6-(2-(3-(Dimethylamino)propyl)phenyl)-8-hydroxyquinazolin-4(3H)-one]: the IC50 at Rec. human COMT (setting [3]) worked out at 0.13 µM. For the compound `CN1CCN(CCOCc2ccccc2-c2cc(O)c3nc[nH]c(=O)c3c2)CC1` [Example 240, 8-Hydroxy-6-(2-((2-(4-methylpiperazin-1-yl)ethoxy)methyl)phenyl)quinazolin-4(3H)-one], at Rec. human COMT (setting [3]), the concentration for half-maximal inhibition (IC50) was determined as 0.03 µM. With `CN(C)Cc1cccc(-c2cc(O)c3nc[nH]c(=O)c3c2)c1` [Example 229, 6-(3-Dimethylaminomethyl-phenyl)-8-hydroxy-3H-quinazolin-4-one], at Rec. human COMT (setting [3]), the 50% inhibitory concentration (IC50) amounted to 0.054 µM. As to `O=c1[nH]cnc2c(O)cc(-c3ccc(Br)nc3)cc12` [Example 144, 6-(6-Bromo-pyridin-3-yl)-8-hydroxy-3H-quinazolin-4-one], the IC50 at Rec. human COMT (setting [3]) came to 0.05 µM. Still for that read-out and setting: the result for `O=C(c1ccccc1-c1cc(O)c2nc[nH]c(=O)c2c1)N1CCS(=O)(=O)CC1` [Example 194, 6-[2-(1,1-Dioxo-1λ^6-thiomorpholine-4-carbonyl)-phenyl]-8-hydroxy-3H-quinazolin-4-one] reads 0.73 µM; that for `Cc1cnc(-c2cc(O)c3nc[nH]c(=O)c3c2)s1` [Example 72, 8-Hydroxy-6-(5-methylthiazol-2-yl)quinazolin-4(3H)-one], 0.03 µM. Still for that read-out and setting: the same measure for `Cc1ncccc1-c1cc(O)c2nc[nH]c(=O)c2c1` [Example 138, 8-hydroxy-6-(2-methylpyridin-3-yl)quinazolin-4(3H)-one]: 0.02 µM.
